Assay results reported in patent publication US7361371B2, “Extract of petasites japonicus having neuroprotective effect and antioxidant activity” (Industry & Acacemic Cooreration in Chungnam National …, priority 2003, dated 2008).

How the values were obtained:
[1] = system: lipid peroxidation in the brain of a mouse; experiment: Inhibition of Fe2+/ascorbic acid-induced lipid peroxidation (TBARS) in mouse brain homogenate; assay type: biochemical; conditions: Fe2+ 0.2 mM / ascorbic acid 25 mM, 37° C., 30 minutes, TBARS at 533 nm
Method: Concretely, the brain of an ICR male mouse (22.5±2.5 g, 6 to 8 weeks old) was removed and washed with 0.15 M KCl solution containing 2 mm EDTA. The washed brain was ground using a tissue homogenizer (Teflon pestle). To 1 ml of the ground brain, 1 ml of 8.1% SDS, 2 ml of 20% acetic acid and 1 ml of 0.75% thiobarbituric acid (TBA) were added. The resulting mixture was boiled, cooled in ice for 30 minutes and centrifuged at 14,000 rpm for 10 minutes to obtain the supernatant. To the supernatant, 1 ml of each of the various solvent fractions of Petasites japonicus from Example 1 was added and Fe^2+ 0.2 mM and ascorbic acid 25 mM were added. The resulting mixture was thoroughly mixed while stirring at 37° C. After 30 minutes, to the mixture, 15% trichloroacetic acid (TCA) and 0.75% TBA were added in the same volume as the mixture. The reaction was boiled for 15 minutes, stored in ice for 5 minutes and centrifuged at 3,000 rpm for 10 minutes to remove corpuscolates. The supernatant was taken and measured for absorption at 533 nm (Bidlack, W. T., and Tappel, A. L., Lipids, 1973, 8, 177-182). Malondialdehyde (Gutteridge, J. M. C., Analytical Biochemistry, 1975, 69, 518-526) produced by hydrolysis of 1,1,3,3,-tetraethoxypropane) was used for calibration.
Asample: absorption of a mixture of brain hydrogenate, ascorbic acid/Fe^2+ and Petasites japonicus extract at 533 nm, […]

[2] = system: ICR mice (neurotoxic behavior induced by KA); experiment: Neuronal behavior change (tail arch, tremor, seizure) after KA; assay type: in vivo, mouse; conditions: KA 44 mg/kg, fraction I or II 200 mg/kg
Method: (§1) Male ICR mice (22.5±2.5 g, 6 to 8 weeks old) were freely fed with solid feed for experimental animals (SamYang Co. Korea) in a polycarbonate cage (5 animals per cage). The mice were bred under conditions including a temperature and a relative humidity maintained at 23±3° C. and 60±10%, respectively, a light-dark cycle of 12 hours and illumination of 150 to 200 Lux. Only the animals which had been judged to be healthy during the acclimation period were randomly assigned to groups for the experiment. The breeding and experiment of animals were performed according to Guide for care and use of laboratory animal (National Institutes of Health Guidelines, 1985, 85-23). The groups of mice were unspecifically grouped and the body weight was measured every day. […] After the KA injection, the behavioral change of the mice was monitored by the method of Kondo et al. (Journal of Cerebral Blood Flow and Metabolism, 1997, 17, 241-256). Also, on the next day after the KA injection, the brains were removed from the mice, frozen in liquid nitrogen and stored at −80° C. for 48 hours at maximum until used.

glutathione (GSH) = assay type: in vivo, mouse; conditions: KA administered alone
Method: About 0.2 g of brain tissue from each brain was put into cold 6% metaphosphoric acid solution and crushed using a cold ceramic percussion motor. The crushed solution was centrifuged at 4° C., 27,000 g for 20 minutes. The supernatant was taken. To 0.05 Ml of the supernatant, 0.39 Ml of 100 mM phosphate buffer (pH 7.4) containing 5 mM EDTA, 0.025 ml of 10 mM DTNB (5,5-dithiobis-(2-nitrobenzoic acid)) and 0.08 ml of 5 mM NADPH were added and equilibrated at 25° C. for 3 minutes. Then, 2 units of glutathione (GSH) reductase was added thereto to initiate a reaction. The formation of 2-nitro-5-thiobenzoic acid was monitored by measuring the adsorption at 412 nm using a UV/VIS spectrophotometer (Roberts, J. C. and Francetic, D. J., Analytical Biochemistry, 1993, 211, 183-187; Raymond, C. et al., Journal of Nutrition, 1995, 125, 3062-3070). The total GSH amount contained in a sample was determined from a standard curve constructed by plotting the adsorption at 412 nm versus the known amount of GSH. The amount of GSH was shown by an average±S.E.M of data obtained by performing the experiment using 4 to 8 mice 3 times.

[3] = system: lipid peroxidation in brain tissue; experiment: KA-induced lipid peroxidation (TBARS amount) in brain homogenate of treated mice; assay type: in vivo, mouse; conditions: KA alone, or pre-treatment with butanol fraction 400 mg/kg, Fraction I or Fraction II
Method: Concretely, the brains were removed from mice
Brain tissue from each brain was crushed in 0.25M sucrose solution and the crushed brain homogenate was measured for the TBARS amount contained therein.

[4] = Change in body weight and brain weight of mice
Method: as §1

[5] = system: pyramidal cells in CA1 and CA3 sites of the hippocampus; experiment: Tissue biopsy: surviving nerve cells in hippocampus after KA; assay type: in vivo, mouse; conditions: brain removed on the next day after KA; butanol fraction pretreated
Excerpt: Also, the brain removed on the next day after the administration of KA was subjected to a tissue biopsy to examine damage of pyramidal cells in CA1 and CA3 sites of the hippocampus.

[6] = system: ICR mice (KA-induced oxidative neurotoxicity); experiment: Fatality rate of mice after kainic acid (KA) injection; assay type: in vivo, mouse
Method: KA, and KA and the butanol fraction of Petasites japonicus were administered and the fatality rate was measured.
The fractions were subjected to the same procedures as described above to measure the fatality rate.

glutathione peroxidase = assay type: in vivo, mouse; conditions: KA alone or butanol fraction pre-administered; FIG. 6a
[7] = KA 44 mg/kg, fraction I or II 200 mg/kg
[8] = KA 50 mg/kg, butanol fraction 400 mg/kg

O=C1O[C@H]([C@@H](O)CO)C(O)=C1O [Ascorbic acid]
IC50 (inhibition of lipid peroxidation) [1]: 0.790 mg/mL

C=C(C)[C@H]1CN[C@H](C(=O)O)[C@H]1CC(=O)O [KA, kainic acid]
Tail arch (upper value, unit not given) ([2]; stage 1): 12.4 ± 4.7
Tail arch (value in brackets) ([2]; stage 1): (100%)
Tremor (upper value, unit not given) ([2]; stage 2): 16.7 ± 6.1
Tremor (value in brackets) ([2]; stage 2): (100%)
Seizure (upper value, unit not given) ([2]; stage 3): 18.9 ± 19.5
Seizure (value in brackets) ([2]; stage 3): (100%)
Total GSH amount in the brain tissue (glutathione (GSH)): 20%
TBARS content of brain homogenate (in words) [3]: increased
Body weight change [4, 7]: 0.39 ± 0.29 g
Brain weight [4, 7]: 0.327 ± 0.0098 g
Final body weight [4, 7]: 29.88 ± 0.86 g
Initial body weight [4, 7]: 29.49 ± 0.91 g
Body weight change [4, 8]: 0.95 ± 0.385 g
Brain weight [4, 8]: 0.346 ± 0.0038 g
Final body weight [4, 8]: 32.34 ± 0.58 g
Initial body weight [4, 8]: 31.39 ± 0.49 g
Surviving nerve cells in the CA1 site of the hippocampus [5]: 18.5%
Surviving nerve cells in the CA3 site of the hippocampus [5]: 8.9%
Fatality rate ([6]; Exp. Group 1: KA 50 mg/kg intraperitoneal, butanol fraction 400 mg/kg oral once per day for 4 days before KA): 54%
Fatality rate ([6]; Exp. Group 2: KA 50 mg/kg intraperitoneal, butanol fraction 150 mg/kg oral once per day for 4 days before KA): 63.6%
Fatality rate [6, 7]: 54%
Glutathione peroxidase activity (in words) (glutathione peroxidase): reduced
